Several values for one entry are separate records, joined by “and”; a condition that tells them apart may be missing. Equal entries are not always repeated. Toxic doses and inconclusive results are not listed.

This test has as its system CD2F1 mice, ip reticulum cell sarcoma, survival T/C. Briefly: NCI In Vivo Anticancer Drug Screen. Data for tumor model Reticulum Cell Sarcoma (Kelley Mouse) (intraperitoneal) in CD2F1 (CDF1) mice. As to conditions: endpoint: median survival time, higher = longer survival. As for the experimental part: The antitumor activity of compounds was measured in mice bearing transplantable tumors. Survival or tumor size were measured and the results are expressed as the measurement made in the treated group (T) divided by the measurement made in the vehicle treated control group (C). The tumor model used in this assay is Reticulum Cell Sarcoma (Kelley Mouse) (intraperitoneal) in CD2F1 (CDF1) mice

`O=C(Nc1ccc(C2=NCCCN2)cc1)c1ccc(NC(=O)c2ccc(C3=NCCCN3)cc2)cc1`: the T/C is, setting by setting: (dose: 1.0 mg/kg/injection, schedule: Q01DX010 (ip), vehicle: other) 117 % of control; (dose: 2.0 mg/kg/injection, schedule: Q01DX010 (ip), vehicle: other) 208 % of control and 222 % of control; (dose: 4.0 mg/kg/injection, schedule: Q01DX010 (ip), vehicle: other) 177 % of control; (dose: 8.0 mg/kg/injection, schedule: Q01DX010 (ip), vehicle: other) 122 % of control.
Turning to `C[C@]12C=CC(=O)C=C1CC[C@@H]1[C@@H]2[C@@H](O)C[C@@]2(C)[C@H]1CC[C@]2(O)C(=O)CO`, the T/C was 97 % of control and 100 % of control (dose: 12.5 mg/kg/injection, schedule: Q01DX010 (sc), vehicle: steriod suspending solution); 94 % of control and 100 % of control (dose: 25.0 mg/kg/injection, schedule: Q01DX010 (sc), vehicle: steriod suspending solution); 94 % of control and 97 % of control (dose: 50.0 mg/kg/injection, schedule: Q01DX010 (sc), vehicle: steriod suspending solution); 94 % of control and 100 % of control (dose: 100.0 mg/kg/injection, schedule: Q01DX010 (sc), vehicle: steriod suspending solution).
Regarding `CN(C)/N=N/c1nc[nH]c1C(N)=O`, the T/C was 100 % of control (dose: 50.0 mg/kg/injection, schedule: Q01DX010 (ip), vehicle: saline); 107 % of control and 120 % of control (dose: 100.0 mg/kg/injection, schedule: Q01DX010 (ip), vehicle: saline); 100 % of control (dose: 400.0 mg/kg/injection, schedule: Q01DX010 (ip), vehicle: saline).
For the compound `O=c1[nH]c(=O)n(C2CC(O)C(CO)O2)cc1F` (stereo unspecified), the T/C runs as follows: (dose: 5.0 mg/kg/injection, schedule: Q01DX010 (ip), vehicle: saline) 156 % of control; (dose: 20.0 mg/kg/injection, schedule: Q01DX010 (ip), vehicle: saline) 171 % of control; (dose: 40.0 mg/kg/injection, schedule: Q01DX010 (ip), vehicle: saline) 187 % of control.
Turning to `Nc1ncnc2[nH]ncc12`, the T/C is 100 % of control and 107 % of control (dose: 1.5 mg/kg/injection, schedule: Q01DX010 (ip), vehicle: saline); 100 % of control and 110 % of control (dose: 3.0 mg/kg/injection, schedule: Q01DX010 (ip), vehicle: saline); 105 % of control and 110 % of control (dose: 6.0 mg/kg/injection, schedule: Q01DX010 (ip), vehicle: saline); 97 % of control and 100 % of control (dose: 12.0 mg/kg/injection, schedule: Q01DX010 (ip), vehicle: saline).
On to `CCN(CCNc1ccc(C)c2sc3cc(Cl)ccc3c(=O)c12)CC(C)O` (stereo unspecified), for which the T/C runs as follows: (dose: 7.8 mg/kg/injection, schedule: Q01DX010 (ip), vehicle: saline) 94 % of control; (dose: 15.6 mg/kg/injection, schedule: Q01DX010 (ip), vehicle: saline) 94 % of control; (dose: 62.5 mg/kg/injection, schedule: Q01DX010 (ip), vehicle: saline) 94 % of control; (dose: 125.0 mg/kg/injection, schedule: Q01DX010 (ip), vehicle: saline) 88 % of control; (dose: 250.0 mg/kg/injection, schedule: Q01DX010 (ip), vehicle: saline) 88 % of control.
With `Nc1nc(SCc2ccccc2)c2[nH]cnc2n1`, the T/C (dose: 8.0 mg/kg/injection, schedule: Q01DX010 (ip), vehicle: saline) was 106 % of control; the T/C (dose: 16.0 mg/kg/injection, schedule: Q01DX010 (ip), vehicle: saline) was 106 % of control; the T/C (dose: 64.0 mg/kg/injection, schedule: Q01DX010 (ip), vehicle: saline) was 116 % of control; the T/C (dose: 128.0 mg/kg/injection, schedule: Q01DX010 (ip), vehicle: saline) was 112 % of control.
In the case of `Nc1nc2n[nH]nc2c(=O)[nH]1`, for the setting “dose: 200.0 mg/kg/injection, schedule: Q01DX010 (ip), vehicle: alkali diluted with saline”, the T/C was 115 % of control and 86 % of control.
Regarding `C1CN1c1nc(N2CC2)nc(N2CC2)n1`, the T/C was 100 % of control (dose: 0.13 mg/kg/injection, schedule: Q01DX010 (ip), vehicle: saline); 100 % of control and 103 % of control (dose: 0.25 mg/kg/injection, schedule: Q01DX010 (ip), vehicle: saline); 123 % of control (dose: 1.0 mg/kg/injection, schedule: Q01DX010 (ip), vehicle: saline).

The values above are taken from PubChem BioAssay AID340 (DTP/NCI, 2004).
